Test results: US8586591B2, “Aminopyrazine derivative and medicine” (Nippon Shinyaku Co., Ltd., priority 2009, dated 2013)
pIC50: −log10 of the molar value. Counter-ions that a name gives are not always drawn.

Columns and labels:
JAK3 tyrosine kinase = molecular target: T1, JAK3 tyrosine kinase (Homo sapiens, UniProt P52333); experiment: Test 1: inhibitory activity to JAK3 tyrosine kinase (ELISA); format: biochemical; details: 25 μM ATP in substrate solution, 30° C. for 1 hour, n=2
T1 construct: purchased Carnabioscience Co
T1 sequence (P52333 1-1124): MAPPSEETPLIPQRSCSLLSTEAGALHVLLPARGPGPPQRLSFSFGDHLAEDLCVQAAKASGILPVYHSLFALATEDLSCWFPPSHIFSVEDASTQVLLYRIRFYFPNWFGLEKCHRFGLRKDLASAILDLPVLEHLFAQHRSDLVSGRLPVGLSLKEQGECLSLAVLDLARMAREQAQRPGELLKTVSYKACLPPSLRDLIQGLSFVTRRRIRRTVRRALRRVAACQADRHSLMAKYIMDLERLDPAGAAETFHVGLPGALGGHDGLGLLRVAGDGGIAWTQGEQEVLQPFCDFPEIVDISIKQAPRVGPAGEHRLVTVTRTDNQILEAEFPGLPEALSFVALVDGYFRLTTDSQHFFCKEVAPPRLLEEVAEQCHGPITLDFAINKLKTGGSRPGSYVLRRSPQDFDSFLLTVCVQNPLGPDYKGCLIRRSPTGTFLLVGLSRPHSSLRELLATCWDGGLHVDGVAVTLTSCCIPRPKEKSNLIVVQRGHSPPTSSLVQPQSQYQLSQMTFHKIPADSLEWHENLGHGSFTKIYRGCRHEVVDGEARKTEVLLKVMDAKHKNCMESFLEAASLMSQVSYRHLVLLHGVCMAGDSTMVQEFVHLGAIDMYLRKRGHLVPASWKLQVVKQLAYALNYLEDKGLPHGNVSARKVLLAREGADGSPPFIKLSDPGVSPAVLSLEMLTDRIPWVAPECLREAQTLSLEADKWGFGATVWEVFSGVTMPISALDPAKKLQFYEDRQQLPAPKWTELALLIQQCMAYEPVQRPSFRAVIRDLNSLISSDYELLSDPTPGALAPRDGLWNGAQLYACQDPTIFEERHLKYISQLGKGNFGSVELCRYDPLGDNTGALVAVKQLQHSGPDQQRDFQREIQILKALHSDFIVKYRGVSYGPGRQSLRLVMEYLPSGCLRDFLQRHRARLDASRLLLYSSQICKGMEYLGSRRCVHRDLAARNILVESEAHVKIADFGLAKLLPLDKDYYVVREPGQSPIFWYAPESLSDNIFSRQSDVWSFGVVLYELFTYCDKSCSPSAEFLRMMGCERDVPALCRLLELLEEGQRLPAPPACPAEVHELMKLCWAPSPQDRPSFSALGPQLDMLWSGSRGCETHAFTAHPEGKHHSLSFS
Outline: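 ELISA of JAK3 kinase activity with absorbance read at 450 nm. Compounds were tested from DMSO dilution series at 100-fold the measurement concentrations (1000–0.01 μM), diluted up to 20 times in assay buffer, against a DMSO negative control. IC50 was estimated by non-linear regression of absorbance.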

JAK2 tyrosine kinase = molecular target: T2, JAK2 tyrosine kinase (Homo sapiens, UniProt O60674); experiment: Test 1: inhibitory activity to JAK2 tyrosine kinase (ELISA); format: biochemical; details: 25 μM ATP in substrate solution, 30° C. for 1 hour, n=2
T2 construct: purchased Carnabioscience Co
Outline: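 Human JAK2 (diluted to 0.75 nM before addition) phosphorylated a biotinylated peptide on streptavidin plates for 1 h at 30 °C. The substrate mix held 625 nM peptide, 25 μM ATP and 25 mM MgCl2 in 15 mM Tris pH 7.5, 0.01% Tween-20 and 1 mM DTT. Phosphotyrosine was detected by HRP antibody/TMB at 450 nm, and IC50 was obtained by non-linear regression; duplicates were run.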

T2 sequence (O60674 whole entry): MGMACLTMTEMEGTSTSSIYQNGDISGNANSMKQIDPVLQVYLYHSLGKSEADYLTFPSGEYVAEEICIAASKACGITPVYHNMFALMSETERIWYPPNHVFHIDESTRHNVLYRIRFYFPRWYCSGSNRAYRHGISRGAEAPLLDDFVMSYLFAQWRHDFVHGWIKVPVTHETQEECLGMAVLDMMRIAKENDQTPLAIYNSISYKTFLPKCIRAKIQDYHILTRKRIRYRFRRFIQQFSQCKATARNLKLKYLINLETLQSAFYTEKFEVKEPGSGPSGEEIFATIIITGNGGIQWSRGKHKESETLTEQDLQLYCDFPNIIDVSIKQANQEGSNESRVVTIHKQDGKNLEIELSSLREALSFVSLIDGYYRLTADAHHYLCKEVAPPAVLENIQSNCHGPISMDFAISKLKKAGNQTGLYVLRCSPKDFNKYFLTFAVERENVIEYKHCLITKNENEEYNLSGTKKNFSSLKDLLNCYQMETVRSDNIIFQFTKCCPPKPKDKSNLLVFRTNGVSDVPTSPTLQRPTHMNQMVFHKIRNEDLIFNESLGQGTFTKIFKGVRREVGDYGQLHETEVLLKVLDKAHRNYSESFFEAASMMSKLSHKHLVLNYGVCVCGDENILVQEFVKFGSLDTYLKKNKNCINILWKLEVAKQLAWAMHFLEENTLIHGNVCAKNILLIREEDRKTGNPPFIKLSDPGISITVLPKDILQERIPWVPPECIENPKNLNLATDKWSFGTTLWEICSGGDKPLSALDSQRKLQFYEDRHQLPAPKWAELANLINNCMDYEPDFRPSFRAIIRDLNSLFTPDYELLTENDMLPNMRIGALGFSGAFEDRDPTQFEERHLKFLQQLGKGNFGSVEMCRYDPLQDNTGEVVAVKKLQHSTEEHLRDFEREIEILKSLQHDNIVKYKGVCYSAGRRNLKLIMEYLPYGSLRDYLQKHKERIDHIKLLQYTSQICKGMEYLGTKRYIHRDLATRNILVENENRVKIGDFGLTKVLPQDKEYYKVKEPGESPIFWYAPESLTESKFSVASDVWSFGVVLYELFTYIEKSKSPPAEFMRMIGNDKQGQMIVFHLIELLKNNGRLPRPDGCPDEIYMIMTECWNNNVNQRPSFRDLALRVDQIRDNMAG

| SMILES | pIC50 (JAK3 tyrosine kinase) | pIC50 (JAK2 tyrosine kinase) |
| --- | --- | --- |
| C[C@H](Nc1cc(N2CCC(O)(CO)CC2)cc(Nc2cnccn2)n1)c1ccc(F)cc1 [Example 125, (S)-1-{2-[1-(4-Fluorophenyl)ethylamino]-6-(pyrazin-2-ylamino)pyridin-4-yl}-4-(hydroxymethyl)piperidin-4-ol] | 6.89 | 8.80 |
| CCCCNC(=O)c1cc(Nc2cnccn2)nc(N[C@@H](C)c2ccc(F)cc2)c1 [Example 169, (S)—N-Butyl-2-[1-(4-fluorophenyl)ethylamino]-6-(pyrazin-2-ylamino) isonicotinamide] | 6.30 | 8.52 |
| CCOCCNC(=O)c1cc(Nc2cnccn2)nc(N[C@@H](C)c2ccc(F)cc2)c1 [Example 173, (S)—N-(2-Ethoxyethyl)-2-[1-(4-fluorophenyl)ethylamino]-6-(pyrazin-2-ylamino)isonicotinamide] | 6.70 | 8.82 |
| Cn1cc(-c2cc(Nc3cnccn3)nc(NC(CO)c3ccc(F)cc3)c2)cn1 (stereo not shown) [Example 179, 2-(4-Fluorophenyl)-2-[4-(1-methyl-1H-pyrazol-4-yl)-6-(pyrazin-2-ylamino)pyridin-2-ylamino]ethanol] | 6.48 | 8.59 |
| CCNC(=O)C1CN(c2cc(Nc3cnccn3)nc(N[C@@H](C)c3ccc(F)cc3)n2)C1 [Example 180, (S)—N-Ethyl-1-{2-[1-(4-fluorophenyl)ethylamino]-6-(pyrazin-2-ylamino)pyrimidin-4-yl}azetidine-3-carboxamide] | 7.28 | 8.60 |
| CCN(CC)C(=O)C1CN(c2cc(Nc3cnccn3)nc(N[C@@H](C)c3ccc(F)cc3)n2)C1 [Example 181, (S)—N,N-Diethyl-1-{2-[1-(4-fluorophenyl)ethylamino]-6-(pyrazin-2-ylamino)pyrimidin-4-yl}azetidine-3-carboxamide] | 7.25 | 8.66 |
| CC(=O)c1cc(Nc2cnccn2)nc(N[C@@H](C)c2ccc(F)cc2)c1 [Example 182, (S)-1-{2-[1-(4-Fluorophenyl)ethylamino]-6-(pyrazin-2-ylamino)pyridin-4-yl}ethanone hydrochloride] | 6.36 | 8.19 |
| COC1CN(c2cc(Nc3cnccn3)nc(N[C@@H](C)c3ccc(F)cc3)n2)C1 [Example 183, (S)—N^2-[1-(4-Fluorophenyl)ethyl]-6-(3-methoxyazetidin-1-yl)-N^4-(pyrazin-2-yl)pyrimidine-2,4-diamine hydrochloride] | 7.23 | 8.74 |
| C[C@H](Nc1nc(Nc2cnccn2)cc(N2CC(C)(O)C2)n1)c1ccc(F)cc1 [Example 184, (S)-1-{2-[1-(4-Fluorophenyl)ethylamino]-6-(pyrazin-2-ylamino)pyrimidin-4-yl}-3-methylazetidin-3-ol hydrochloride] | 7.35 | 9.04 |
| CNC(=O)c1ccc(Nc2cnccn2)nc1N[C@@H](C)c1ccc(F)cc1 [Example 185, (S)-2-[1-(4-Fluorophenyl)ethylamino]-N-methyl-6-(pyrazin-2-ylamino)nicotinamide] | 6.42 | 8.38 |
| C[C@H](Nc1nc(Nc2cnccn2)ccc1C(=O)N(C)C)c1ccc(F)cc1 [Example 186, (S)-2-[1-(4-Fluorophenyl)ethylamino]-N,N-dimethyl-6-(pyrazin-2-ylamino) nicotinamide] | 6.62 | 8.26 |
| C[C@H](Nc1nc(Nc2cnccn2)ccc1C(=O)N1CCOCC1)c1ccc(F)cc1 [Example 188, (S)-{2-[1-(4-Fluorophenyl)ethylamino]-6-(pyrazin-2-ylamino)pyridin-3-yl}(morpholino)methanone dihydrochloride] | 6.92 | 8.43 |
| C[C@H](Nc1nc(Nc2cnccn2)ccc1C(=O)NCC1CC1)c1ccc(F)cc1 [Example 189, (S)—N-(Cyclopropylmethyl)-2-[1-(4-fluorophenyl)ethylamino]-6-(pyrazin-2-ylamino)nicotinamide] | 5.82 | 7.92 |
| CC(C)NC(=O)C1CN(c2cc(Nc3cnccn3)nc(N[C@@H](C)c3ccc(F)cc3)n2)C1 [Example 191, (S)-1-{2-[1-(4-Fluorophenyl)ethylamino]-6-(pyrazin-2-ylamino)pyrimidin-4-yl}-N-isopropylazetidine-3-carboxamide] | 7.51 | 8.85 |
| C[C@H](Nc1nc(Nc2cnccn2)cc(N2CC(O)(C(F)(F)F)C2)n1)c1ccc(F)cc1 [Example 192, (S)-1-{2-[1-(4-Fluorophenyl)ethylamino]-6-(pyrazin-2-ylamino)pyrimidin-4-yl}-3-(trifluoromethyl)azetidin-3-ol hydrochloride] | 6.92 | 8.72 |
| C[C@H](Nc1nc(Nc2cnccn2)cc(N2CC(C(=O)N3CCCC3)C2)n1)c1ccc(F)cc1 [Example 193, (S)-(1-{2-[1-(4-Fluorophenyl)ethylamino]-6-(pyrazin-2-ylamino)pyrimidin-4-yl}azetidin-3-yl)(pyrrolidin-1-yl)methanone] | 7.46 | 9.10 |

Now from value to compound:

| pIC50 (JAK3 tyrosine kinase) | pIC50 (JAK2 tyrosine kinase) | SMILES |
| --- | --- | --- |
| 6.20 | 8.06 | C[C@H](Nc1cc(-c2ccc(S(N)(=O)=O)cc2)cc(Nc2cnccn2)n1)c1ccc(F)cc1 [Example 126, (S)-4-{2-[1-(4-Fluorophenyl)ethylamino]-6-(pyrazin-2-ylamino)pyridin-4-yl}benzenesulfonamide] |
| 5.89 | 7.77 | C[C@H](Nc1cc(C(=O)NC2CCC2)cc(Nc2cnccn2)n1)c1ccc(F)cc1 [Example 168, (S)—N-Cyclobutyl-2-[1-(4-fluorophenyl)ethylamino]-6-(pyrazin-2-ylamino)isonicotinamide] |
| 6.24 | 8.72 | C[C@H](Nc1cc(C(=O)NCC(F)(F)F)cc(Nc2cnccn2)n1)c1ccc(F)cc1 [Example 171, (S)-2-[1-(4-Fluorophenyl)ethylamino]-6-(pyrazin-2-ylamino)-N-(2,2,2-trifluoroethyl) isonicotinamide] |
| 6.82 | 9.07 | C[C@H](Nc1cc(C(=O)NCCCO)cc(Nc2cnccn2)n1)c1ccc(F)cc1 [Example 172, (S)-2-[1-(4-Fluorophenyl)ethylamino]-N-(3-hydroxypropyl)-6-(pyrazin-2-ylamino)isonicotinamide] |
| 7.33 | 9.00 | CNC(=O)C1CN(c2cc(Nc3cnccn3)nc(N[C@@H](C)c3ccc(F)cc3)n2)C1 [Example 174] |
| 6.40 | 8.31 | COCc1cc(Nc2cnccn2)nc(N[C@@H](C)c2ccc(F)cc2)c1 [Example 175, (S)—N^2-[1-(4-Fluorophenyl)ethyl]-4-(methoxymethyl)-N^6-(pyrazin-2-yl)pyridine-2,6-diamine] |
| 7.06 | 9.13 | C[C@H](Nc1nc(Nc2cnccn2)cc(N2CC(NS(C)(=O)=O)C2)n1)c1ccc(F)cc1 [Example 177, (S)—N-(1-{2-[1-(4-Fluorophenyl)ethylamino]-6-(pyrazin-2-ylamino)pyrimidin-4-yl}azetidin-3-yl)methanesulfonamide] |
| 7.09 | 9.00 | C[C@H](Nc1nc(Nc2cnccn2)cc(N2CC(C#N)C2)n1)c1ccc(F)cc1 [Example 178, (S)-1-{2-[1-(4-Fluorophenyl)ethylamino]-6-(pyrazin-2-ylamino)pyrimidin-4-yl}azetidine-3-carbonitrile] |
| 6.40 | 8.62 | C[C@H](Nc1nc(Nc2cnccn2)ccc1C(N)=O)c1ccc(F)cc1 [Example 187, (S)-2-[1-(4-Fluorophenyl)ethylamino]-6-(pyrazin-2-ylamino) nicotinamide] |
| 7.24 | 8.92 | CCS(=O)(=O)NC1CN(c2cc(Nc3cnccn3)nc(N[C@@H](C)c3ccc(F)cc3)n2)C1 [Example 190, (S)—N-(1-{2-[1-(4-Fluorophenyl)ethylamino]-6-(pyrazin-2-ylamino)pyrimidin-4-yl}azetidin-3-yl)ethanesulfonamide] |
